Measurements: publication PMC10363979, “Effects of bergapten on the pharmacokinetics of macitentan in rats both in vitro and in vivo” (Frontiers in Pharmacology, 2023)
Where two headings read alike, the source gives them in different places.

How the values were obtained:
ET receptor = tested on: ET receptor; parameters: method as in Iglarz et al, 2008; conditions: ref Iglarz et al, 2008, cited from earlier work; for Pharmacological activity of metabolite: Figure 1
[1] = Inhibition of macitentan metabolism (ACT-132577 formation) by bergapten and Michaelis-Menten kinetics in rat liver microsomes; type: in vitro ADME; conditions: rat, rat liver microsomes, pH 7.4; RLMs
Procedure: (§1) The concentrations of macitentan and ACT-132577 were determined by UPLC-MS/MS, which consisted of an Acquity I-class UPLC system (Waters Corp., Milford, MA, United States) and a Xevo TQD triple quadrupole mass spectrometer (Waters Corporation, Milford, MA, United States) equipped with an electrospray ionization source. Chromatographic separation was performed on an Acquity UPLC BEH C18 column (2.1 × 100 mm, 1.7 μm) at 40°C. The mobile phase was composed of acetonitrile (solvent A) and water containing 0.1% formic acid (solvent B, pH 2.74). The gradient condition of mobile phases was set with a flow rate of 0.4 mL/min as follows: 0–0.5 min, 20% A; 0.5–1 min, 70% A; 1–2 min, 95% A; 2–2.6 min, 20% A. Positive ion and selective multiple reaction monitoring (SRM) modes were used for quantitative analysis with the precursor to product ion transitions of m/z 588.9→203.4 for macitentan, 546.9→200.6 for ACT-132577, and 285.0→193.0 for diazepam. The cone voltage and collision voltage were 28V, 14 V for macitentan, 26V, 28 V for ACT-132577, and 35V, 30 V for diazepam. The mass spectrometry parameters of the source temperature, desolvation temperature, cone gas flow rate, and desolvation gas flow rate were 150°C, 500°C, 50 L/h, and 1000 L/h, respectively.
(§2) The effects of BP on macitetan metabolism in vitro were investigated using RLMs, HLMs, and rCYP3A4. And, the formation of ACT-132577 was considered as an indicator of inhibitory effect. The 200 μL incubation system contained NADPH (1 mM), potassium phosphate buffer (100mM, pH = 7.4), macitentan, BP, and RLMs (0.3 mg/mL), HLMs (0.2 mg/mL), or rCYP3A4 (0.13 mg/mL). Firstly, a series concentration of macitentan with 1, 2.5, 5, 10, 25, 50 and 100 μM were included in the reaction buffer to determine the Km and Vmax values. Then, a series concentration of BP following 0, 0.01, 0.1, 1, 5, 10, 50 and 100 μM were used for the determination of IC50 value of BP against macitentan. […] The system was pre-incubated at 37°C for 5 min, and 10 μL NADPH was added to initiate the reaction. After incubation for 30 min at 37°C, 200 μL ice-cold acetonitrile and 30 μL diazepam (500 ng/mL) were added to terminate the reaction. The samples were centrifuged at 13,000 rpm for 5 min, and the supernatant fraction (150 μL) was collected for UPLC-MS/MS analysis.

[2] = tested on: Rat liver microsomes (RLMs); assay: as above; type: in vitro ADME; conditions: RLMs
Procedure: as §1, §2

[3] = Pharmacokinetic interaction between BP and macitentan in rats (plasma macitentan and ACT-132577); type: in vivo, Sprague-Dawley rats; conditions: for Cmax / Tmax / AUC(0-inf) / AUC(0-t) / CL/F / MRT last / MRT inf / half-life: Sprague-Dawley, rat, plasma, po, 20 mg/kg, macitentan in plasma, macitentan 20 mg/kg oral; for CL/F: read-out: CLz/F (converted); for MRT last: read-out: MRT(0-t); for MRT inf: read-out: MRT(0-∞); for half-life: read-out: t1/2z (converted)
Procedure: as §1
Twelve Sprague-Dawley rats were randomly assigned to two groups. BP (10 mg/kg) was continuously administered daily to rats in the experimental group for 7 days, whereas the 0.5% CMC-Na was orally administered once a day to rats in the control group. Rats were fasted overnight before dosing, with free access to water. Macitentan (20 mg/kg) was intragastrically administered 30 min after the last dose of BP or 0.5% CMC-Na on the seventh day. Blood samples (300 μL) were collected from the tail vein into 1.5 mL Eppendorf tubes containing 10 μL heparin sodium at the time points of 0.083, 0.25, 0.5, 1, 2, 3, 4, 6, 8, 12, 24, and 36 h after macitentan administration. Plasma was obtained after centrifugation of the blood samples at 4,000 rpm for 10 min and stored at −80°C for further analysis. Before UPLC-MS/MS analysis, 100 μL plasma was mixed with 200 μL acetonitrile and 30 μL diazepam (500 ng/mL) and then fractionated at 13,000 rpm for 5 min at 4°C. A 150 μL sample of the supernatant was collected for analysis.
All assays were performed in triplicate, and the results are expressed as mean ± standard deviation. The pharmacokinetic parameters of elimination half-life (t1/2), area under the plasma concentration-time curve (AUC), maximal plasma concentration (Cmax), time to peak plasma concentration, plasma clearance (CLz/F), apparent volume of distribution, and mean residence time were calculated using a non-compartment model with DAS software (version 3.2.8, Lishui People’s Hospital, China). Data analysis, statistical comparisons, and graphs were generated using GraphPad Prism software (version 7.0; GraphPad Software Inc., San Diego, CA, United States). Student’s t-test of variance following the least significant difference method was used for comparisons between the control and experimental groups. Statistical significance was set at p < 0.05.

[4] = Stability of macitentan and ACT-132577 in rat plasma (UPLC-MS/MS method validation); type: in vitro ADME
Procedure: as §1
Method validation, including accuracy, precision, recovery, matrix effects and stability, was conducted in accordance with the guidelines of the FDA and the European Medicines Agency.

[5] = parameters: method as in Sidharta et al, 2015; conditions: estimated; ref Sidharta et al, 2015; cited from earlier work
[6] = cited from earlier work
[7] = tested on: macitentan metabolism (formation of ACT-132577); assay: Inhibition of macitentan metabolism (ACT-132577 formation) by bergapten and Michaelis-Menten kinetics in rat liver microsomes; type: in vitro ADME; conditions: rat, rat liver microsomes, pH 7.4, probe macitentan; RLMs 0.3 mg/mL, 30 min, 37°C; read-out: IC50 of BP on macitentan metabolism
Procedure: as §1, §2

[8] = biological target: human liver microsomes (HLMs) (Homo sapiens, UniProt P08684); assay: Inhibition of macitentan metabolism (ACT-132577 formation) by bergapten and Michaelis-Menten kinetics in human liver microsomes; type: in vitro ADME
Procedure: as §1
as §2, with “After incubation for 30 min at 37°C, 200 μL ice-cold acetonitrile and 30 μL diazepam (500 ng/mL) were added to terminate the reaction. The samples were centrifuged at 13,000 rpm for 5 min, and the supernatant fraction (150 μL) was collected for UPLC-MS/MS analysis.” left out

[9] = biological target: macitentan metabolism (formation of ACT-132577) (Homo sapiens, UniProt P08684); assay: as above; type: in vitro ADME; conditions: human, pH 7.4
Procedure: as §1
as §2, with “After incubation for 30 min at 37°C, 200 μL ice-cold acetonitrile and 30 μL diazepam (500 ng/mL) were added to terminate the reaction. The samples were centrifuged at 13,000 rpm for 5 min, and the supernatant fraction (150 μL) was collected for UPLC-MS/MS analysis.” left out

[10] = biological target: T1, recombinant human CYP3A4 (rCYP3A4) (Homo sapiens, UniProt P08684); assay: Inhibition of macitentan metabolism (ACT-132577 formation) by bergapten and Michaelis-Menten kinetics in recombinant human CYP3A4; type: in vitro ADME
T1 construct: made in house
Procedure: as §1
as §2, with “After incubation for 30 min at 37°C, 200 μL ice-cold acetonitrile and 30 μL diazepam (500 ng/mL) were added to terminate the reaction. The samples were centrifuged at 13,000 rpm for 5 min, and the supernatant fraction (150 μL) was collected for UPLC-MS/MS analysis.” left out

[11] = Plasma Cmax of bergapten in rat (literature); type: in vivo; conditions: 3 mg/kg bergapten, converted from ng/mL, ref Li et al, 2014
[12] = parameters: method as in Li et al, 2014; conditions: rat, 3 mg/kg bergapten; ref Li et al, 2014; cited from earlier work
[13] = control group (0.5% CMC-Na 7 days)
[14] = experimental group (BP 10 mg/kg daily 7 days)
[15] = with BP 10 mg/kg vs without, p < 0.05
[16] = single dose macitentan, ref Atsmon et al, 2013

T1 sequence (P08684 whole entry): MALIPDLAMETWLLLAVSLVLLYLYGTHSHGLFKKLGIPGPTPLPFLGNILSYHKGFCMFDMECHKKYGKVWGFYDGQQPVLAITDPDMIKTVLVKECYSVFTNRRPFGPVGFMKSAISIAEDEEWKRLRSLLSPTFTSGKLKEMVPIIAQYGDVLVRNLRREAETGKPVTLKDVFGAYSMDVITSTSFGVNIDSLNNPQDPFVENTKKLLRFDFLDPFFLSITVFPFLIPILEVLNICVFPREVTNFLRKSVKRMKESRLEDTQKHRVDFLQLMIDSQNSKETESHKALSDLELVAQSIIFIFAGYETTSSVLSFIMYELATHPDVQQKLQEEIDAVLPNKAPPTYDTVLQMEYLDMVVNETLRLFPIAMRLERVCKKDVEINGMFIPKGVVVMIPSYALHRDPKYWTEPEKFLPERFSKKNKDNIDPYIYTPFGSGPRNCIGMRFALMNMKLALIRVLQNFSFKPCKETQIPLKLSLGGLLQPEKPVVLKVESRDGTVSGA
Sequence of human liver microsomes (HLMs) (P08684 2-503): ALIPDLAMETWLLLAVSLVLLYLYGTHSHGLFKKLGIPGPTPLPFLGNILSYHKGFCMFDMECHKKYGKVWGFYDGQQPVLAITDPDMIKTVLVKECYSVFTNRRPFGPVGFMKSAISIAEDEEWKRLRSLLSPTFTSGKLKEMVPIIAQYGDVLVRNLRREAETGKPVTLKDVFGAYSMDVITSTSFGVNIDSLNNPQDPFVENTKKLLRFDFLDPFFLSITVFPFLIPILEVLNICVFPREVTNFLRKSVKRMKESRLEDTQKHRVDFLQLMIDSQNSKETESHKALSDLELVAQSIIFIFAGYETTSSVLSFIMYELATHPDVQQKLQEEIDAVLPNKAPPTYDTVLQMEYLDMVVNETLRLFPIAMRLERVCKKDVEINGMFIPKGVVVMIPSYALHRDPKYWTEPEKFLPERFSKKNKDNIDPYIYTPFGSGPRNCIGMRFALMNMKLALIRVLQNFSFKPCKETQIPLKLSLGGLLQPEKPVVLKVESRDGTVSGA
Sequence of macitentan metabolism (formation of ACT-132577) (Homo sapiens, UniProt P08684) (P08684 2-503): as above

CCCNS(=O)(=O)Nc1ncnc(OCC(=O)O)c1-c1ccc(Br)cc1 [ACT-373898]
Pharmacological activity of metabolite (ET receptor): Inactive

CCCNS(=O)(=O)Nc1ncnc(OCCOc2ncc(Br)cn2)c1-c1ccc(Br)cc1 [macitentan]
Km at 30 min [1]: 4.82 µM | Vmax of macitentan metabolism [2]: 0.50 nmol/min/mg protein | Cmax ([3]; control group): 1340 ng/mL | Tmax ([3]; control group): 1.92 ± 0.8 h | AUC(0-inf) [3, 13]: 7900 ng·h/mL | AUC(0-t) [3, 13]: 7870 ng·h/mL | CL/F ([3]; control group): 43.3 mL/min/kg | MRT last ([3]; control group): 5.48 ± 0.96 h | MRT inf ([3]; control group): 5.6 ± 1.08 h | half-life ([3]; control group): 4.53 ± 0.9 h | AUC(0-inf) [3, 14]: 20400 ng·h/mL | AUC(0-t) [3, 14]: 20300 ng·h/mL | Cmax [3, 14]: 3000 ng/mL | Tmax [3, 14]: 2.5 ± 0.55 h | CL/F [3, 14]: 17.8 mL/min/kg | MRT last [3, 14]: 5.91 ± 0.74 h | MRT inf [3, 14]: 6.12 ± 0.8 h | half-life [3, 14]: 5.07 ± 1.15 h | CLz/F decreased by, experimental vs control group ([3]; with BP 10 mg/kg vs without): 0.59 fold | AUC(0-t) enhanced by, experimental vs control group [3, 15]: 1.57 fold | AUC(0-∞) enhanced by, experimental vs control group [3, 15]: 1.58 fold | Cmax enhanced by, experimental vs control group [3, 15]: 1.24 fold | Stability RE (%) ([4]; 4°C, 24 h, 4 ng/mL): 107.57% | Stability RE (%) ([4]; 4°C, 24 h, 160 ng/mL): 104.86% | Stability RE (%) ([4]; 4°C, 24 h, 1,600 ng/mL): 106.50% | Stability RE (%) ([4]; Room temperature, 6 h, 4 ng/mL): 113.51% | Stability RE (%) ([4]; Room temperature, 6 h, 160 ng/mL): 109.43% | Stability RE (%) ([4]; Room temperature, 6 h, 1,600 ng/mL): 105.63% | Stability RE (%) ([4]; −80°C, 7days, 4 ng/mL): 104.39% | Stability RE (%) ([4]; −80°C, 7days, 160 ng/mL): 103.80% | Stability RE (%) ([4]; −80°C, 7days, 1,600 ng/mL): 105.44% | oral bioavailability [5]: 74% | Exposure reduction in the presence of rifampin ([6]; ref Bruderer et al, 2012b): four-fold | Exposure reduced to, coadministered with St. John’s Wort ([6]; ref Huppertz et al, 2018): approximately half | Exposure increase in the presence of ketoconazole [6, 16]: approximately two-fold

COc1c2ccoc2cc2oc(=O)ccc12 [BP, 5-methoxypsoralen]
Inhibition mechanism (Lineweaver-Burk) [2]: competitive inhibition | Ki ([2]; competitive inhibition, read-out: Ki of BP on macitentan metabolism): 1.39 µM | IC50 at 30 min [7]: 3.84 µM | Inhibition mechanism (Lineweaver-Burk) ([8]; HLMs): competitive inhibition | Ki ([8]; human, microsomes): 0.12 µM | IC50 at 30 min [9]: 17.8 µM | Inhibition mechanism (Lineweaver-Burk) ([10]; rCYP3A4): competitive inhibition | IC50 ([10]; rCYP3A4 0.13 mg/mL, 30 min, 37°C, read-out: IC50 of BP on macitentan metabolism): 12.8 µM | Ki ([10]; read-out: Ki of BP on macitentan metabolism): 5.06 µM | Cmax [11]: ~2100 nM | Cmax [12]: around 447.72 ± 30.61 ng/mL

NS(=O)(=O)Nc1ncnc(OCCOc2ncc(Br)cn2)c1-c1ccc(Br)cc1 [ACT-132577]
Difference in pharmacokinetic parameters, experimental vs control group ([3]; with BP 10 mg/kg vs without, p > 0.05): no significant differences | Stability RE (%) ([4]; 4°C, 24 h, 30 ng/mL): 106.81% | Stability RE (%) ([4]; 4°C, 24 h, 900 ng/mL): 104.77% | Stability RE (%) ([4]; 4°C, 24 h, 9000 ng/mL): 105.28% | Stability RE (%) ([4]; Room temperature, 6 h, 30 ng/mL): 109.84% | Stability RE (%) ([4]; Room temperature, 6 h, 900 ng/mL): 106.18% | Stability RE (%) ([4]; Room temperature, 6 h, 9000 ng/mL): 107.44% | Stability RE (%) ([4]; −80°C, 7days, 30 ng/mL): 105.76% | Stability RE (%) ([4]; −80°C, 7days, 900 ng/mL): 107.26% | Stability RE (%) ([4]; −80°C, 7days, 9000 ng/mL): 103.40% | Pharmacological activity of metabolite (ET receptor): Active | Potency relative to macitentan (less potent) (ET receptor; antagonism of the ET receptor): approximately five-fold | Change in exposure in the presence of rifampin ([6]; ref Bruderer et al, 2012b): no significant change | Concentrations when macitentan coadministered with St. John’s Wort ([6]; ref Huppertz et al, 2018): unaltered | Exposure decrease in the presence of ketoconazole [6, 16]: 26%
